Source: patent US11925629B2, “Heterocyclic inhibitors of ERK1 and ERK2 and their use in the treatment of cancer” (Asana Biosciences, LLC, priority 2015, dated 2024)
Like-named read-outs stand apart in the source and are kept apart here.

Experiments:
Assay type in all cases: cell-based, human
[1] = test system: HCT116 (colorectal carcinoma, K Ras G13D) cells; assay: Cell proliferation (Alamar Blue) assay, HCT116; details: Homo sapiens, HCT-116, HCT116 cells
Outline: (§1)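 Fluorescence read-out (ex 540 nm, em 590 nm) after 1-3 h with 1× Alamar Blue, following 72 h compound exposure at 37° C./5% CO2. Compounds tested at typically 0.0005 to 10 uM, 3-fold steps; IC50 by sigmoidal dose-response (variable slope).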

[2] = test system: HT-29 (colorectal carcinoma, B-RafV600E) cells; assay: Cell proliferation (Alamar Blue) assay, HT-29
Outline: as §1

[3] = test system: phosphorylation of RSK1(S380) (the downstream target of ERK1/2); assay: Phospho-RSK1(S380) ELISA assay in HT-29 cells; details: read-out: Mechanistic Cell Assay RSK1 Phos HT29 IC50
Experimental: Phospho-RSK1(S380) ELISA Assay
HT-29 cells (colorectal carcinoma, B-RafV600E); obtained from ATCC, USA) were seeded (60,000 cells/well) in a 96-well plate and incubated at 37° C./5% CO2 overnight and then treated with desired compound dilutions for 2 h. Medium was removed and cells were rinsed once with ice-cold 1×PBS, then 0.070 mL ice-cold 1× cell lysis buffer containing 1 mM PMSF was added to each well and the plate was incubated on a shaker for 2 h and 30 min at 4° C. The plate was then centrifuged for 20 min (×4000 rpm) at 4° C. and the supernatant was transferred to a new plate. Cell lysates were diluted with sample diluent at a ratio of 1:1. The ELISA was then carried out following the manufacturer's protocol (PathScan® phospho-RSK1(Ser380) Sandwich ELISA Kit, Cell Signaling Technologies). The plate was read at 450 nm within 30 min after adding STOP solution. The IC50 values were subsequently determined using a sigmoidal dose-response curve (variable slope) in GraphPad Prism® 5 software.

[4] = Homo sapiens, HT-29, HT29 cells
[5] = Homo sapiens, HT-29, HT29 cells, phospho-RSK1(S380)

IC50 [1] [nM] | IC50 [2, 4] [nM] | IC50 [3, 5] [nM] | IC50 ([2]; HT29 cells) [nM] | IC50 ([3]; HT29 cells, phospho-RSK1(S380)) [nM] | IC50 [3, 4] [nM] | SMILES
500 to 2500 | ≤ 100 | 100 to 250 | – | – | – | Cc1cnc(NC2CCOC2)nc1-n1ccc(C(=O)N[C@H](CO)c2cccc(Cl)c2)c1 (stereo partly drawn) [Example 151, N-((S)-1-(3-chlorophenyl)-2-hydroxy-ethyl)-1-(5-methyl-2-((tetrahydro-furan-3-yl)amino)pyrimidin-4-yl)-1H-pyrrole-3-carboxamide]
500 to 2500 | 250 to 500 | 250 to 500 | – | – | – | Cc1cnc(Nc2ccc3c(c2)OC(C)(C)O3)nc1-n1ccc(C(=O)NC(CO)c2cccc(Cl)c2)c1 (stereo not shown) [Example 96, N-(1-(3-chloro-phenyl)-2-hydroxy-ethyl)-1-(2-((2,2-dimethyl-benzo[d][1,3]dioxol-5-yl)amino)-5-methyl-pyrimidin-4-yl)-1H-pyrrole-3-carboxamide]
– | 500 to 2500 | 500 to 2500 | – | – | – | Cc1cnc(NC2CCOCC2)nc1-n1cnc(C(=O)NCc2cccc(Cl)n2)c1 [Example 307, N-((6-chloropyridin-2-yl)methyl)-1-(5-methyl-2-((tetrahydro-2H-pyran-4-yl)amino)pyrimidin-4-yl)-1H-imidazole-4-carboxamide]
> 2500 | – | 500 to 2500 | – | – | – | Cc1cnc(NC2CC(F)(F)C2)nc1-n1cnc(C(=O)N[C@@H](CN)c2cc(F)cc(Cl)c2)c1 [Example 289, (R)-N-(2-amino-1-(3-chloro-5-fluorophenyl)ethyl)-1-(2-((3,3-difluorocyclobutyl)amino)-5-methylpyrimidin-4-yl)-1H-imidazole-4-carboxamide]
> 2500 | – | 250 to 500 | – | – | – | Cc1cnc(NC2CCOCC2)nc1-n1cnc(C(=O)NC(CO)c2ccc(Cl)s2)c1 (stereo not shown) [Example 257, N-(1-(5-chlorothiophen-2-yl)-2-hydroxyethyl)-1-(5-methyl-2-((tetrahydro-2H-pyran-4-yl)amino)pyrimidin-4-yl)-1H-imidazole-4-carboxamide]
500 to 2500 | – | 250 to 500 | – | – | – | Cc1cnc(NC2CCOCC2)nc1-n1cnc(C(=O)N[C@]2(c3cccc(Cl)c3)C[C@@H](O)C2)c1 [Example 245, N-((1s,3s)-1-(3-chlorophenyl)-3-hydroxycyclobutyl)-1-(5-methyl-2-((tetrahydro-2H-4-yl)amino)pyrimidin-4-yl)-1H-imidazole-4-carboxamide]
> 2500 | – | ≤ 100 | – | – | – | Cc1cnc(NC2CCOc3ccccc32)nc1-n1cnc(C(=O)N[C@H](CO)c2cccc(Cl)c2)c1 (stereo partly drawn) [Example 247, N-((S)-1-(3-chlorophenyl)-2-hydroxyethyl)-1-(2-(chroman-4-ylamino)-5-methylpyrimidin-4-yl)-1H-imidazole-4-carboxamide]
100 to 250 | – | 250 to 500 | – | – | – | Cc1cnc(Nc2cccc(N3CCOCC3)c2)nc1-n1cnc(C(=O)N[C@H](CN)c2cccc(Cl)c2)c1 [Example 272, (S)-N-(2-amino-1-(3-chlorophenyl)ethyl)-1-(5-methyl-2-((3-morpholinophenyl)amino)pyrimidin-4-yl)-1H-imidazole-4-carboxamide]
≤ 100 | – | 100 to 250 | – | – | – | Cc1cnc(NC2CC(F)(F)C2)nc1-n1cnc(C(=O)NCc2cccc(Cl)c2CO)c1 [Example 273, N-(3-chloro-2-(hydroxymethyl)benzyl)-1-(2-((3,3-difluorocyclobutyl)amino)-5-methylpyrimidin-4-yl)-1H-imidazole-4-carboxamide]

Further lines, the compound ahead of its results:

SMILES | IC50 [1] [nM] | IC50 [2, 4] [nM] | IC50 [3, 5] [nM] | IC50 ([2]; HT29 cells) [nM] | IC50 ([3]; HT29 cells, phospho-RSK1(S380)) [nM] | IC50 [3, 4] [nM]
Cc1cnc(Nc2ccc(F)cc2)nc1-n1cc(C(=O)NC(CO)c2ccccc2)nc1C (stereo not shown) [Cmpd 153, 1-(2-((4-fluoro-phenyl)amino)-5-methyl-pyrimidin-4-yl)-N-(2-hydroxy-1-phenylethyl)-2-methyl-1H-imidazole-4-carboxamide] | > 2500 | > 2500 | > 2500 | – | – | –
Cc1cnc(NC2CCCOC2)nc1-n1ccc(C(=O)N[C@H](CO)c2cccc(Cl)c2)c1 (stereo partly drawn) [Example 152, N-((S)-1-(3-chlorophenyl)-2-hydroxy-ethyl)-1-(5-methyl-2-((tetrahydro-2H-pyran-3-yl)amino)pyrimidin-4-yl)-1H-pyrrole-3-carboxamide] | 500 to 2500 | – | – | 100 to 250 | 100 to 250 | –
O=C(Nc1cnn(-c2ccnc(Nc3ccccc3)c2)c1)N[C@H](CO)c1cccc(Cl)c1 [Example 34, (S)-1-(1-(3-chlorophenyl)-2-hydroxy-ethyl)-3-(1-(2-(phenyl-amino)pyridin-4-yl)-1H-pyrazol-4-yl)urea] | > 2500 | – | > 2500 | – | – | –
Cc1cnc(NC2CCOCC2)nc1-n1cnc(C(=O)NC(CN)c2cccs2)c1 (stereo not shown) [Example 267, N-(2-amino-1-(thiophen-2-yl)ethyl)-1-(5-methyl-2-((tetrahydro-2H-pyran-4-yl)amino)pyrimidin-4-yl)-1H-imidazole-4-carboxamide] | 100 to 250 | – | 100 to 250 | – | – | –
Cc1cnc(Nc2ccc3c(c2)OCO3)nc1-n1cnc(C(=O)NC(CN)c2cc(F)cc(Cl)c2)c1 (stereo not shown) [Example 269, N-(2-amino-1-(3-chloro-5-fluorophenyl)ethyl)-1-(2-(benzo[d][1,3]dioxol-5-ylamino)-5-methylpyrimidin-4-yl)-1H-imidazole-4-carboxamide] | ≤ 100 | – | ≤ 100 | – | – | –
Cc1cnc(NC2CCOCC2)nc1-n1cnc(C(=O)NC(CO)c2cccc(C(F)(F)F)c2)c1 (stereo not shown) [Example 237, N-(2-hydroxy-1-(3-(trifluoromethyl)phenyl)ethyl)-1-(5-methyl-2-((tetrahydro-2H-pyran-4-yl)amino)pyrimidin-4-yl)-1H-imidazole-4-carboxamide] | > 2500 | – | 250 to 500 | – | – | –
Cc1cnc(NC2CCOCC2)nc1-n1cnc(C(=O)NCc2ccccc2C(C)(C)O)c1 [Example 293, N-(2-(2-hydroxypropan-2-yl)benzyl)-1-(5-methyl-2-((tetrahydro-2H-pyran-4-yl)amino)pyrimidin-4-yl)-1H-imidazole-4-carboxamide] | 500 to 2500 | – | 500 to 2500 | – | – | –
Cc1cnc(NC2CCC(F)(F)CC2)nc1-n1cnc(C(=O)N[C@H](CO)c2cccc(Cl)c2)c1 [Example 240, (S)-N-(1-(3-chlorophenyl)-2-hydroxyethyl)-1-(2-((4,4-difluorocyclohexyl)amino)-5-methylpyrimidin-4-yl)-1H-imidazole-4-carboxamide] | 250 to 500 | – | 100 to 250 | – | – | –
Cc1cnc(N[C@@H]2CCOC2)nc1-n1cnc(C(=O)N[C@H](CO)c2cccc(Cl)c2)c1 [Example 265, N-((S)-1-(3-chlorophenyl)-2-hydroxyethyl)-1-(5-methyl-2-(((R)-tetrahydrofuran-3-yl)amino)pyrimidin-4-yl)-1H-imidazole-4-carboxamide] | 100 to 250 | – | 250 to 500 | – | – | –
Cc1cnc(NC2CCOC(C)C2)nc1-n1cnc(C(=O)N[C@H](CO)c2cccc(Cl)c2)c1 (stereo partly drawn) [Example 251, N-((S)-1-(3-chlorophenyl)-2-hydroxyethyl)-1-(5-methyl-2-((2-methyltetrahydro-2H-pyran-4-yl)amino)pyrimidin-4-yl)-1H-imidazole-4-carboxamide] | 250 to 500 | – | ≤ 100 | – | – | –
Cc1cnc(Nc2ccc(F)c(N3CCOCC3)c2)nc1-n1cnc(C(=O)NC(CN)c2cccc(Cl)c2)c1 (stereo not shown) [Example 256, N-(2-amino-1-(3-chlorophenyl)ethyl)-1-(2-((4-fluoro-3-morpholinophenyl)amino)-5-methylpyrimidin-4-yl)-1H-imidazole-4-carboxamide] | ≤ 100 | – | ≤ 100 | – | – | –
Cc1cnc(NC2CCOCC2)nc1-n1cnc(C(=O)NC(C(N)=O)c2cccc(Cl)c2)c1 (stereo not shown) [Example 312, N-(2-amino-1-(3-chlorophenyl)-2-oxoethyl)-1-(5-methyl-2-((tetrahydro-2H-pyran-4-yl)amino)pyrimidin-4-yl)-1H-imidazole-4-carboxamide] | > 2500 | – | – | – | – | 500 to 2500
Cc1cnc(NC2CCOCC2)nc1-n1cnc(C(=O)NC(c2cccc(Cl)c2)C(C)O)c1 (single isomer, unassigned; isomer #2) [Example 252, N-(1-(3-chlorophenyl)-2-hydroxypropyl)-1-(5-methyl-2-((tetrahydro-2H-pyran-4-yl)amino)pyrimidin-4-yl)-1H-imidazole-4-carboxamide (isomer #2)] | 250 to 500 | – | 100 to 250 | – | – | –
Cc1cnc(NC2CCOCC2)nc1-n1cnc(C(=O)NC(CO)c2cccs2)c1 (stereo not shown) [Example 233, N-(2-hydroxy-1-(thiophen-2-yl)ethyl)-1-(5-methyl-2-((tetrahydro-2H-pyran-4-yl)amino)pyrimidin-4-yl)-1H-imidazole-4-carboxamide] | > 2500 | – | ≤ 100 | – | – | –
Cc1cnc(N[C@H]2CC[C@@H](O)CC2)nc1-n1cnc(C(=O)N[C@H](CO)c2cccc(Cl)c2)c1 [Example 242, N-((S)-1-(3-chlorophenyl)-2-hydroxyethyl)-1-(2-(((1r,4S)-4-hydroxycyclohexyl)amino)-5-methylpyrimidin-4-yl)-1H-imidazole-4-carboxamide] | 500 to 2500 | – | 250 to 500 | – | – | –
